Measurements: the supplement of paper PMC12370961

Columns and labels:
Assay in all cases: differential drug sensitivity score (dDSS) relative to sarcoma reference cohort mean DSS (DSS units (0-100 scale difference)); higher = more selective sensitivity than reference sarcomas
Conditions in all cases: exposure time: 72 h; concentration range: 10-10000 nM
CDS-ZH001-2 = tested on: CDS-ZH001-2 (patient-derived CIC-DUX4 sarcoma tumoroid)
Procedure: (§1)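 Drug response profiling of patient-derived Ewing sarcoma and CIC::DUX4 sarcoma tumoroid models (or cells tested directly after isolation from the tumor, 'direct'). The DSS is the normalised AUC (0-100); dDSS is the sample DSS minus the mean DSS of a 34-sarcoma reference cohort profiled in the same lab.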

CDS-ZH001 = tested on: CDS-ZH001 (patient-derived CIC-DUX4 sarcoma tumoroid)
Procedure: as §1

CDS-ZH002 direct = tested on: CDS-ZH002 direct (CIC-DUX4 sarcoma cells right after isolation)
Procedure: as §1

CDS-ZH002 = tested on: CDS-ZH002 (patient-derived CIC-DUX4 sarcoma tumoroid)
Procedure: as §1

CDS-ZH003 = tested on: CDS-ZH003 (patient-derived CIC-DUX4 sarcoma tumoroid)
Procedure: as §1

ES-ZH001 = tested on: ES-ZH001 (patient-derived Ewing sarcoma tumoroid)
Procedure: as §1

ES-ZH002 = tested on: ES-ZH002 (patient-derived Ewing sarcoma tumoroid)
Procedure: as §1

ES-ZH004 = tested on: ES-ZH004 (patient-derived Ewing sarcoma tumoroid)
Procedure: as §1

ES-ZH007 = tested on: ES-ZH007 (patient-derived Ewing sarcoma tumoroid)
Procedure: as §1

ES-ZH008 = tested on: ES-ZH008 (patient-derived Ewing sarcoma tumoroid)
Procedure: as §1

ES-ZH009 = tested on: ES-ZH009 (patient-derived Ewing sarcoma tumoroid)
Procedure: as §1

ES-ZH016 direct = tested on: ES-ZH016 direct (Ewing sarcoma cells right after isolation)
Procedure: as §1

ES-ZH016 = tested on: ES-ZH016 (patient-derived Ewing sarcoma tumoroid)
Procedure: as §1

SMILES	differential drug sensitivity score (CDS-ZH001-2)	differential drug sensitivity score (CDS-ZH001)	differential drug sensitivity score (CDS-ZH002 direct)	differential drug sensitivity score (CDS-ZH002)	differential drug sensitivity score (CDS-ZH003)	differential drug sensitivity score (ES-ZH001)	differential drug sensitivity score (ES-ZH002)	differential drug sensitivity score (ES-ZH004)	differential drug sensitivity score (ES-ZH007)	differential drug sensitivity score (ES-ZH008)	differential drug sensitivity score (ES-ZH009)	differential drug sensitivity score (ES-ZH016 direct)	differential drug sensitivity score (ES-ZH016)
CC[C@@H]1C(=O)N(C)c2cnc(Nc3ccc(C(=O)NC4CCN(C)CC4)cc3OC)nc2N1C1CCCC1 [BI-2536]	1.7	-0.7	-8	2.2	-10	21.6	19	2.9	6.1	2.3	19.6	13.4	17.6
CO[C@H]1C[C@@H]2CC[C@@H](C)[C@@](O)(O2)C(=O)C(=O)N2CCCC[C@H]2C(=O)O[C@H]([C@H](C)C[C@@H]2CC[C@@H](OCCO)[C@H](OC)C2)CC(=O)[C@H](C)/C=C(\C)[C@@H](O)[C@@H](OC)C(=O)[C@H](C)C[C@H](C)/C=C/C=C/C=C/1C [Everolimus]	-3.9	-5.3	-6.4	-7.4	-3.3	5.3	13.6	12	9.6	4.8	9.3	-7	-3.5
COc1cc(N2CCC(N3CCN(C)CC3)CC2)ccc1Nc1ncc(Cl)c(Nc2ccccc2P(C)(C)=O)n1 [Brigatinib]	7.6	3.4	-0.2	-4.2	2	-0.4	9	-3	1.9	4.1	2.5	0.4	1.9
O=P1(N(CCCl)CCCl)NCCCO1 (stereo unspecified) [Cyclophosphamide]	-0.3	1.7	-0.3	-0.3	-0.3	-0.3	3.8	-0.3	-0.3	-0.3	-0.3	-0.3	-0.3
O=c1cc(-c2cccc3c2Sc2ccccc2S3)oc(N2CCOCC2)c1	2.9	0	3.7	-0.2	-1.3	-1.3	-1.3	-1.3	-1.3	-1.3	-0.4	13.8	-1.3
C[C@H]1CNC(=O)c2cnn3ccc(nc23)N[C@H](C)c2cc(F)ccc2O1 [Repotrectinib]	6.2	-0.3	0.2	-0.4	-1.4	0.2	5	2.9	-1.3	10.8	1.8	7.7	2.1
O=[P@]1(N(CCCl)CCCl)N[C@H](OO)CCO1 [Hydroperoxycyclophosphamide]	-2.3	-0.7	-3.6	-3.6	-4.1	1.7	7.7	6.4	0.2	6.5	-1	4.6	2.2
Fc1cc(-c2cccc3ncc(-c4cnn(C5CCNCC5)c4)nc23)cc(F)c1CN1CCOCC1 [BSK805]	1.9	2.5	0.1	-2.6	2.6	-0.1	3.2	1.4	2.8	2.9	1.7	3	2.5
CCC[C@H](NC(=O)/C(C#N)=C/c1cccc(Br)n1)c1ccccc1 [Degrasyn]	-1.4	-1.4	-1.4	-1.1	0.7	-1.4	4.8	-1.1	-1.4	0.7	-1.4	-0.2	-0.8
C[C@@H](Oc1cc(-c2cnn(C3CCNCC3)c2)cnc1N)c1c(Cl)ccc(F)c1Cl [Crizotinib]	4.4	2.3	-3.4	-0.9	1.6	3.1	7.3	-1.9	5.1	1.2	0.5	4	0
NS(=O)(=O)OC[C@@H]1C[C@@H](n2ccc3c(N[C@H]4CCc5ccccc54)ncnc32)C[C@@H]1O [Pevonedistat]	-2.1	8.7	7.6	-1.6	0.7	11.4	9.3	2.4	3.6	5.9	2.9	1.9	8.3
CN1CCN(CCOc2cc(OC3CCOCC3)c3c(Nc4c(Cl)ccc5c4OCO5)ncnc3c2)CC1 [Saracatinib]	0.9	0.3	4.3	-0.5	-1.5	-0.7	5.6	2.9	-2.3	5.7	-2.8	2.3	-1.7
CCN(CC)Cc1ccc2cc(COC(=O)Nc3ccc(C(=O)NO)cc3)ccc2c1 [Givinostat]	2.7	-0.7	1.5	-0.9	-3.4	1.9	5.5	4.2	3.7	5.9	6.8	3.3	3.9
CC(C)CCN1c2nc(Nc3cc(F)c(O)c(F)c3)ncc2N(C)C(=O)C1C (stereo unspecified) [BI-D1870]	-0.8	1.3	-1.7	-2.3	4.1	2.9	3.1	3	0.6	5.6	8.6	7.3	2.7
C=CC(=O)Nc1cccc(Nc2nc(Nc3ccc(OCCOC)cc3)ncc2F)c1 [Spebrutinib]	-3.1	-2.5	-3.5	-2.9	-2.8	1.8	8.3	3.7	-1.6	4.7	-2	4.7	-1.4
CC(C)c1cc(C(=O)N2Cc3ccc(CN4CCN(C)CC4)cc3C2)c(O)cc1O [Onalespib]	0.4	-3.5	-2.7	-6.3	-1.5	3.6	9.5	-1.2	-3	7.7	4.9	6.1	-3.1
N[C@@H](Cc1ccc(N(CCCl)CCCl)cc1)C(=O)O [Melphalan]	-1.7	-1.7	-1.7	-1.7	-1.7	-1	7	4.3	-1.7	2.7	-1.3	4	3.5
O=C(CCCCCCC(=O)Nc1ccccc1)NO [Vorinostat]	0.5	-4	-0.2	-3.6	3.3	9.5	8	7.3	6.3	5.1	6.6	5.3	-0.7
Nc1ccn([C@@H]2O[C@H](CO)[C@@H](O)C2(F)F)c(=O)n1 [Gemcitabine]	1.8	4.5	-7	-4.9	-7	23.1	24.8	20.1	24.5	18.7	19.6	9.7	22.4
CCN1CCN(c2ccc(Nc3cc(N(C)C(=O)Nc4c(Cl)c(OC)cc(OC)c4Cl)ncn3)cc2)CC1 [Infigratinib]	-1.1	-1.9	2.3	-6.1	-1.3	-4	2	-3.9	-3.2	-6.1	-0.1	1.6	-4
COc1ccc(C(=O)CC2(O)C(=O)Nc3c(Cl)ccc(Cl)c32)cc1 (stereo unspecified) [YK-4-279]	1.9	0.2	-2	-3	-20.3	4.5	8.2	-3.2	0	-0.3	3.8	2.9	3.1
O=c1[nH]c2ccccc2n1C1CCN(CCCC(c2ccc(F)cc2)c2ccc(F)cc2)CC1 [Pimozide]	6.3	3.4	-2.1	0.9	5.1	-4.3	-2.4	-3.1	-2.3	-3.6	7.1	7.3	5.5
COc1cc(OC)c2c(=O)[nH]c(-c3cc(C)c(OCCO)c(C)c3)nc2c1 [Apabetalone]	-0.7	-0.6	-0.7	-0.7	3.6	-0.7	0.6	0.6	-0.7	3.2	0.5	-0.7	-0.7
CCc1nc(C(N)=O)c(Nc2ccc(N3CCC(N4CCN(C)CC4)CC3)c(OC)c2)nc1NC1CCOCC1 [Gilteritinib]	8	7.4	1.6	-1.4	10.4	1.1	16	4.2	4.2	10.2	10.1	9.4	0.8
CC1(COc2ccc3c(c2)ncn3-c2ccc3cccc(N4CCC(N)CC4)c3n2)COC1 [Crenolanib]	1.4	2.5	-1.7	-2.3	-4.2	4	3.4	2.9	4	-0.6	2.8	1.2	-1.3
CNCc1ccc(-c2[nH]c3cc(F)cc4c3c2CCNC4=O)cc1 [Rucaparib]	7.1	-4	-0.8	-4	-4.1	6.7	17.9	5.6	4.3	11.5	1.4	21	4.9
CS(=O)(=O)c1ccc(C(=O)Nc2ccc(Cl)c(-c3ccccn3)c2)c(Cl)c1 [Vismodegib]	-2.6	-2.7	1.1	-2.4	-6.9	4.7	7.1	5.2	0.4	2.8	-2.6	-2.7	1.4
